pIC50: −log10 of the molar value.
Target: T1, LpxC enzyme (Escherichia coli, UniProt P0A725)
T1 sequence (P0A725 1-305): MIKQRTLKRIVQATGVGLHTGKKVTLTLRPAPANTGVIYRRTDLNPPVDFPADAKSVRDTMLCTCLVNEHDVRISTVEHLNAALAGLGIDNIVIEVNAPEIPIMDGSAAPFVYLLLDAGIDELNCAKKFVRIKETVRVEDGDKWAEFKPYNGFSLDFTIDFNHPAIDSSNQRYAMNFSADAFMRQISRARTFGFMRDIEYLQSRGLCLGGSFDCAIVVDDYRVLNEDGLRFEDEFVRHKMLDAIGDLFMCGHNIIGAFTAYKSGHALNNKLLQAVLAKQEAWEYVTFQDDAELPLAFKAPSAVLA
Test: standard LpxC assay (RapidFire high-throughput mass spectrometry)
Type: biochemical
Conditions: 1.0 μM UDP-3-O-(R-3-hydroxymyristoyl)-N-acetylglucosamine, 60 minutes at room temperature, 2% DMSO; read-out: E.coli IC50
Protocol: The standard LpxC assay consists of […] LpxC enzyme, 1.0 μM UDP-3-O-(R-3-hydroxymyristoyl)-N-acetylglucosamine, and test compound, in assay buffer and 2% DMSO. Assay buffer is comprised of 25 mM HEPES, pH 7.3, 150 mM NaCl, 2.0 mM DTT, and 0.01% BSA. The enzyme reaction is carried out in a 96-well assay plate, in a final volume of 102 μL. Solutions of rest compounds are prepared in 100% DMSO. Reaction additions, in order, are (1) 2.0 μL compound solution, (2) 80 μL of assay buffer, (3) 10 μL of 10 μM UDP-3-O-(R-3-hydroxymyristoyl)-N-acetylgucosamine (in assay buffer) and, (4) 10 μL of LpxC enzyme (20 nM in assay buffer) to initiate the reaction. In positive control reactions, addition (1) has 2.0 μL of 100% DMSO (without compound); these reactions are used as the total signal (TSB) value. Reactions are incubated at room temperature for 60 minutes when 10 μL of 1 N HCl is added to stop the reaction. The plate is shaken by hand for 10 seconds to ensure complete quenching. […]
The concentrations of substrate and product in the reaction mixtures are determined with BioTrove's proprietary RapidFire™ high-throughput mass spectrometry (HTMS). […] The mass spectrometry peak areas of the substrate and product are measured to determine the concentration of these analytes. […] Percent inhibition, % I, in test samples is determined from the following equation: […]

Structure (SMILES)	pIC50
C[C@@H](O)[C@@H](NC(=O)N1CCCC(c2ccc(C#Cc3ccccc3)cc2)C1)C(=O)NO (some centres unmarked) [Compound 41]	6.30 to 7.30
C[C@@H](NC(=O)N[C@@H](C(=O)NO)[C@@H](C)O)c1ccc(-n2cccn2)cc1 [Compound 46]	5.00 to 5.30
